From PMC10580383, “Development of Melanocortin 4 Receptor Agonists by Exploiting Animal-Derived Macrocyclic, Disulfide-Rich Peptide Scaffolds” (ACS Pharmacology & Translational Science, 2023)
Where a SMILES comes first, the peptide text is derived from it. Bridges are numbered along the chain shown (N, C = ends). [ ]: non-standard residue; d: D form.

Columns and labels:
MC4R over MC1R and MC3R = conditions: Figure S6
human MC4R [1] = molecular target: T1, human MC4R (Homo sapiens, UniProt P32245); experiment: nanoluciferase complementation assay MC4R-LgBit / Gαs-SmBit (Gαs coupling); type: cell-based; conditions: for increase in efficacy in recruiting Gαs compared to α-MSH: nanoluciferase complementation MC4R-LgBit/Gαs-SmBit, normalized to α-MSH maximum response
T1 construct: expressed in transfected cells; host or cells: HEK293T, transient co-transfection
Method: We proceeded with more detailed pharmacological characterization of Pr4LP1 and Ar3LP1 to gain more insights into the signaling pathways that follow MC4R stimulation.
(§1) Figure 5 Biosensor characterization of Pr4LP1 and Ar3LP1 peptides acting as agonists at MC4R. […] Data are represented as means ± SEM for all experimental replicates and were performed in triplicate from n ≥ 3 independent experiments.
(§2) The plasmid constructs used to show interactions between human MC4R and Gαs protein and/or β-arrestin-2 were designed with fused SmBit and LgBit proteins, that upon complementation form the fully functional nanoluciferase enzyme that can produce detectable bioluminescence upon addition of the substrate furimazine. For the Gαs coupling, we used a LgBit fused at the C-terminus of MC4R (MC4R-LgBit) and cotransfected with the Gαs-SmBit construct. For the β-arrestin-2 recruitment assay, we used a C-terminally fused MC4R-SmBit and the β-arrestin-2-LgBit constructs. The cotransfection ratio was 1:10 (Gαs/β-arrestin-2/receptor). Cells were harvested, washed, and resuspended in fresh medium 24 h post-transfection. Approximately 5 × 10^4 cells/well were distributed in precoated 96-well white plates and allowed to adhere overnight. On an experimental day, cells were washed with HBSS and maintained in HBSS (80 μL/well). The furimazine substrate for the luciferase (50×) stock was diluted at 1× with HBSS, and 10 μL/well was added to all assay wells and incubated for 12 min before addition of ligands. Ligand dilutions were prepared at 10× final concentration in HBSS, and 10 μL/well was added to the assay wells. Plates were read 5 min following ligand addition using a ClarioStar equipped with a nanoluc-compatible optic module (BMG Labtech). […] EC50/Emax values were calculated via a nonlinear regression analysis.
Target sequence in this assay (P32245 whole entry): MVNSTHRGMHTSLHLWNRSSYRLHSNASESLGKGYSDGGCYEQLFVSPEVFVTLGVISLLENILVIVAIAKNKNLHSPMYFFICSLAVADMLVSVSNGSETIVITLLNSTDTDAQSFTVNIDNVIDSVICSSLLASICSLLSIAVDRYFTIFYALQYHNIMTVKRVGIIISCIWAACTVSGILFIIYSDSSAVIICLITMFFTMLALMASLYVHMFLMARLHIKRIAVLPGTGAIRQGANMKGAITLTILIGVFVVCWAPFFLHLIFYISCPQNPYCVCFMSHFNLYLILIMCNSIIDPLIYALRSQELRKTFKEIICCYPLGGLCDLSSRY

human MC4R [2] = molecular target: T1, human MC4R; experiment: nanoluciferase complementation assay MC4R-SmBit / β-arrestin-2-LgBit (β-arrestin-2 recruitment); type: cell-based; conditions: for increased potency in β-arrestin-2 recruitment as compared to α-MSH: ratio of EC50 values, nanoluciferase complementation MC4R-SmBit/β-arrestin-2-LgBit; for Emax: read-out: increase in efficacy (Emax) of β-arrestin-2 recruitment compared to α-MSH
Method: as §1
Target sequence in this assay (P32245 whole entry): as above
Target sequence in this assay (P32121 whole entry partner): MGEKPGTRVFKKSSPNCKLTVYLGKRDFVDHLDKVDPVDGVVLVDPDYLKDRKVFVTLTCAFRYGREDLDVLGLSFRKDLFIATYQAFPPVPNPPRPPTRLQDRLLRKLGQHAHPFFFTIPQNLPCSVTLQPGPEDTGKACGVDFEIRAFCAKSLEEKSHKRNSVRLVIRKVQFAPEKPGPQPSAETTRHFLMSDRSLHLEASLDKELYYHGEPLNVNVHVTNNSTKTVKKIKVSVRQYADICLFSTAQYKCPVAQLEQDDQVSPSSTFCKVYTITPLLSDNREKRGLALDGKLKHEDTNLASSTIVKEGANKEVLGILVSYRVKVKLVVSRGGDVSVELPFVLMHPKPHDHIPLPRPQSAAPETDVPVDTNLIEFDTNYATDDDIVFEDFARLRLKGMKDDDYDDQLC
In an attempt to quantify signaling bias using the Black–Leff operational model by calculating ΔΔlog(τ/KA),[27]–[29] we identified a trend for preferred β-arrestin-2 recruitment over Gαs coupling, albeit not significant (data not shown).
as §2

human MC4R [3] = experiment: pGlo cAMP accumulation assay; type: cell-based; conditions: cells transiently expressing human MC4R, 1 and 10 μM, three independent experiments in technical triplicate
Method: (§3) Following functional analysis at MC4R, we were intrigued to know how selective Pr4LP1 and Ar3LP1 were for MC4R vs other melanocortin receptors.
(§4) Figure 6 Selectivity determination of Pr4LP1 and Ar3LP1 peptides at MC4R vs MC1R and MC3R. […] Data (not normalized) are represented as mean ± SEM from three independent experiments performed in technical triplicate.
(§5) Cells transiently expressing human MC1R, MC3R, or MC4R were incubated for 24 h. Afterward all contents of each well were carefully removed, and cells were then equilibrated in cAMP buffer [1× HBSS, 24 mM HEPES, 0.1% (w/v) BSA, 3.96 mM NaHCO3, 1 mM MgSO4, 1.3 mM CaCl2 dihydrate], supplemented with firefly D-luciferin free acid (0.45 mg/mL) (NanoLight Technology). 90 μL of cAMP buffer was added to all wells, and the 96-well plate was then incubated (28 °C, 1 h). Bioluminescence was measured using the CLARIOstar Plus Plate Reader (BMG LabTech). Prior to injecting the treatment ligands, approximately 5–10 basal readings were performed until stabilization was reached. Peptide ligands (10 μL) were added to the well. Bioluminescence was measured for a total of 30 cycles (1 min per cycle, 1 s integration time, without filter, a fixed gain of 3000, and autofocus).

human MC1R = experiment: pGlo cAMP accumulation assay; type: cell-based; conditions: cells transiently expressing human MC1R, up to 10 μM, three independent experiments in technical triplicate
Method: as §3, §4, §5

human MC3R = experiment: pGlo cAMP accumulation assay; type: cell-based; conditions: cells transiently expressing human MC3R, up to 10 μM, three independent experiments in technical triplicate
Method: as §3, §4, §5

[4] = molecular target: T2, mouse melanocortin 4 receptor (MC4R) (Mus musculus, UniProt P56450); experiment: cAMP second messenger quantification assay (Cisbio HTRF cAMP Gs kit); type: cell-based; conditions: for Emax: HEK293, read-out: efficacy cAMP Emax ± SD
T2 construct: expressed in transfected cells; host or cells: HEK293 / HEK293T, transient transfection
T2 sequence (P56450 whole entry): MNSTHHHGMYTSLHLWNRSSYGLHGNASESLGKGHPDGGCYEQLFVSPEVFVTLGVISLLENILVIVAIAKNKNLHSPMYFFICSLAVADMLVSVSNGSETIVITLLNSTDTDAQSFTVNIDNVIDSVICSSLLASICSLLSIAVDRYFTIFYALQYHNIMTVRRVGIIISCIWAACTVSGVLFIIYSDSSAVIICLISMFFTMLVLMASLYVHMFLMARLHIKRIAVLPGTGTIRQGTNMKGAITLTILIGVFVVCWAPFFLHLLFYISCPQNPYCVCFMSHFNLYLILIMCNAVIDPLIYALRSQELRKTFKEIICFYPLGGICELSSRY

Structure (SMILES)	selectivity in recruiting β-arrestin-2 (MC4R over MC1R and MC3R)	EC50 (human MC4R [1]) [nM]	increase in efficacy in recruiting Gαs compared to α-MSH (human MC4R [1]) [%]	EC50 (human MC4R [2]) [nM]	increased potency in β-arrestin-2 recruitment as compared to α-MSH (human MC4R [2])	Emax (human MC4R [2]) [%]	cAMP response at MC4R (RLU) (human MC4R [3])	cAMP response at MC1R (RLU) (human MC1R)	cAMP response at MC3R (RLU) (human MC3R)	EC50 [4] [nM]	Emax [4] [%]
CC(C)C[C@H](NC(=O)[C@H](CCCNC(=N)N)NC(=O)CNC(=O)CNC(=O)[C@@H](N)CCCNC(=N)N)C(=O)N[C@H]1CSSC[C@@H](C(=O)N[C@H](C(=O)NCC(=O)N[C@@H](CCCNC(=N)N)C(N)=O)C(C)C)NC(=O)[C@H](Cc2ccccc2)NC(=O)[C@@H]2CSSC[C@H](NC(=O)[C@H](Cc3ccc(O)cc3)NC1=O)C(=O)N1CCC[C@H]1C(=O)N[C@@H](Cc1c[nH]cn1)C(=O)N[C@H](Cc1ccccc1)C(=O)N[C@@H](Cc1c[nH]cn1)C(=O)N[C@@H](Cc1c[nH]c3ccccc13)C(=O)N2 [Pr4LP1] (H-RGGRLCYCPH[dF]HWCFCVGR-NH2; disulfide 6-16, 8-14)	selective for MC4R over MC1R and MC3R	0.193	8.8	23.5	approximately 20 fold	99	activate the receptor	no response	no response	3.98	96 ± 3
CC(C)[C@@H]1NC(=O)[C@H](Cc2ccc(O)cc2)NC(=O)[C@H](Cc2c[nH]c3ccccc23)NC(=O)[C@@H](NC(=O)[C@H](Cc2ccccc2)NC(=O)CN)CSSC[C@@H](C(=O)N[C@@H](CC(N)=O)C(N)=O)NC(=O)[C@H](CCCNC(=N)N)NC(=O)[C@H](CCCNC(=N)N)NC(=O)[C@H](Cc2ccc(O)cc2)NC(=O)[C@@H]2CSSC[C@H](NC1=O)C(=O)N1CCC[C@H]1C(=O)N[C@@H](Cc1c[nH]cn1)C(=O)N[C@H](Cc1ccccc1)C(=O)N[C@@H](Cc1c[nH]cn1)C(=O)N[C@@H](Cc1c[nH]c3ccccc13)C(=O)N2 [Ar3LP1] (H-GFCWYVCPH[dF]HWCYRRCN-NH2; disulfide 3-17, 7-13)	selective for MC4R over MC1R and MC3R	0.702	25	25.2	approximately 20 fold	82	activate the receptor	no response	no response	1	98 ± 4
